{
  "source": "patent US20080233561A1",
  "about": "“Method for Measuring Cytopathic Effect Due to Viral Infection in Cells Using Electric Cell-Substrate Impedance Sensing” (UNIVERSITY OF LOUISVILLE RESEARCH FOUNDATION, INC., priority 2005, published 2008)",
  "system": "PR8 influenza A virus (influenza/A/PR/8/34 virus)",
  "type": "cell-based",
  "data": [
    {"smiles": "Cl.N", "note": "[NH4Cl, ammonium chloride]", "values": [
      {"measurement": "CPE in influenza-infected cells, observed with ECIS", "value": "Inhibition of CPE in influenza-infected cells"}
    ]}
  ]
}
